Measurements: patent publication US20240246908A1 (ORION CORPORATION, priority 2021, published 2024)

tested on: YAP-TEAD; assay: TEAD inhibition, Hippo Pathway TEAD Reporter MCF-7 luciferase assay; assay type: cell-based; settings: Homo sapiens, MCF7, 24 h, Hippo Pathway TEAD Reporter MCF-7 cells, luciferase activity after 24 h; read-out: IC50 of the test compounds on YAP-TEAD inhibition (Group)
In short: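 MCF-7 cells carrying a TEAD-responsive firefly luciferase reporter, with nuclear YAP1 driving constitutive expression, were treated the day after plating with compounds (11 concentrations, 4 replicates; 0.1% DMSO control). After 24 h, luciferase was read by ONE-Glo luminescence and IC50 determined.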

Compared with `COc1ccc(Oc2ccc(C(F)(F)F)cc2)cc1NC(=O)C1CNC(=O)N1C` (centres unmarked) [Compound 117, N-(2-Methoxy-5-(4-(trifluoromethyl)phenoxy)phenyl)-3-methyl-2-oxo-imidazolidine-4-carboxamide], `COc1ccc(Oc2ccc(C(F)(F)F)cc2)cc1NC(=O)[C@H]1CNC(=O)N1C` [Compound 140, (R)—N-(2-Methoxy-5-(4-(trifluoromethyl)phenoxy)phenyl)-3-methyl-2-oxo-imidazolidine-4-carboxamide] is higher in IC50: less than 50 nM for the first, 50 to 300 nM for the second. The first is the more potent here.

Compared with `COc1ccc(Oc2ccc(C(F)(F)F)cn2)cc1NC(=O)C1CNC(=O)N1C` (centres unmarked) [Compound 118, N-(2-Methoxy-5-((5-(trifluoromethyl)pyridin-2-yl)oxy)phenyl)-3-methyl-2-oxoimidazolidine-4-carboxamide], `COc1ccc(Oc2ccc(C(F)(F)F)cn2)cc1NC(=O)[C@H]1CNC(=O)N1C` [Compound 124, (R)—N-(2-Methoxy-5-((5-(trifluoromethyl)pyridin-2-yl)oxy)phenyl)-3-methyl-2-oxoimidazolidine-4-carboxamide] is higher in IC50: less than 50 nM for the first, 301 to 2000 nM for the second.

First: COc1ccc(Oc2ccc(C(F)(F)F)cc2)cc1NC(=O)[C@H]1CCC(=O)NC1 [Compound 119, (S)—N-(2-Methoxy-5-(4-(trifluoromethyl)phenoxy)phenyl)-6-oxopiperidine-3-carboxamide]
Second: COc1ccc(Oc2ccc(C(F)(F)F)cc2)cc1NC(=O)[C@@H]1CCC(=O)NC1 [Compound 120, (R)—N-(2-Methoxy-5-(4-(trifluoromethyl)phenoxy)phenyl)-6-oxopiperidine-3-carboxamide]
The IC50 of the first is lower: less than 50 nM for the first, 301 to 2000 nM for the second.

Compared with `COc1ccc(Oc2ccc(C(F)(F)F)cc2)cc1NC(=O)C1(C)CCC(=O)NC1` (centres unmarked) [Compound 121, N-(2-Methoxy-5-(4-(trifluoromethyl)phenoxy)phenyl)-3-methyl-6-oxo-piperidine-3-carboxamide], `COc1ccc(Oc2ccc(C(F)(F)F)cc2)cc1NC(=O)[C@@]1(C)CCC(=O)N1C` [Compound 134, (R)—N-(2-methoxy-5-(4-(trifluoromethyl)phenoxy)phenyl)-1,2-dimethyl-5-oxopyrrolidine-2-carboxamide] is lower in IC50: 301 to 2000 nM for the first, less than 50 nM for the second. The second is the more potent here.

First: COc1ccc(Oc2ccc(C(F)(F)F)cc2)cc1NC(=O)c1ccc(=O)[nH]c1 [Compound 122, N-(2-Methoxy-5-(4-(trifluoromethyl)phenoxy)phenyl)-6-oxo-1,6-dihydro-pyridine-3-carboxamide]
Second: COc1ccc(Oc2ccc(C(F)(F)F)cc2)cc1NC(=O)C1CNC(=O)N1 (centres unmarked) [Compound 144, N-(2-Methoxy-5-(4-(trifluoromethyl)phenoxy)phenyl)-2-oxoimidazolidine-4-carboxamide]
The IC50 of the first is higher: 301 to 2000 nM for the first, 50 to 300 nM for the second. The second is the more potent here.

Compared with `COc1ccc(Oc2ccc(C(F)(F)F)cn2)cc1NC(=O)C1(C)CNC(=O)N1C` (centres unmarked) [Compound 123, N-(2-Methoxy-5-((5-(trifluoromethyl)pyridin-2-yl)oxy)phenyl)-3,4-dimethyl-2-oxoimidazolidine-4-carboxamide], `COc1ccc(Oc2ccc(C(F)(F)F)cn2)cc1NC(=O)[C@@H]1CNC(=O)N1C` [Compound 130, (S)—N-(2-Methoxy-5-((5-(trifluoromethyl)pyridin-2-yl)oxy)phenyl)-3-methyl-2-oxoimidazolidine-4-carboxamide] is lower in IC50: 301 to 2000 nM for the first, less than 50 nM for the second. The second is the more potent here.

`COc1ccc(Oc2ccc(C(F)(F)F)cn2)cc1NC(=O)[C@@H]1COC(=O)N1C` [Compound 125, (S)—N-(2-Methoxy-5-((5-(trifluoromethyl)pyridin-2-yl)oxy)phenyl)-3-methyl-2-oxooxazolidine-4-carboxamide] and `COc1ccc(Oc2ccc(C(F)(F)F)cn2)cc1NC(=O)[C@H]1COC(=O)N1C` [Compound 126, (R)—N-(2-Methoxy-5-((5-(trifluoromethyl)pyridin-2-yl)oxy)phenyl)-3-methyl-2-oxooxazolidine-4-carboxamide] fall in the same range of IC50: 50 to 300 nM for the first, 50 to 300 nM for the second.

Compared with `CCN1C(=O)NCC1C(=O)Nc1cc(Oc2ccc(C(F)(F)F)cn2)ccc1OC` (centres unmarked) [Compound 127, 3-Ethyl-N-(2-methoxy-5-((5-(trifluoromethyl)pyridin-2-yl)oxy)phenyl)-2-oxo-imidazolidine-4-carboxamide], `COc1ccc(Oc2ccc(C(F)(F)F)cn2)cc1NC(=O)C1CNC(=O)N1C1CC1` (centres unmarked) [Compound 131, 3-Cyclopropyl-N-(2-methoxy-5-((5-(trifluoromethyl)pyridin-2-yl)oxy)phenyl)-2-oxoimidazolidine-4-carboxamide] is lower in IC50: 50 to 300 nM for the first, less than 50 nM for the second.

`COc1ccc(Oc2ccc(C(F)(F)F)cn2)cc1NC(=O)[C@H]1CCC(=O)N1C1CC1` [Compound 128, (R)-1-Cyclopropyl-N-(2-methoxy-5-((5-(trifluoromethyl)pyridin-2-yl)oxy)-phenyl)-5-oxopyrrolidine-2-carboxamide] and `COc1ccc(Oc2ccc(C(F)(F)F)cn2)cc1NC(=O)[C@@H]1CCC(=O)N1C1CC1` [Compound 129, (S)-1-Cyclopropyl-N-(2-methoxy-5-((5-(trifluoromethyl)pyridin-2-yl)oxy)-phenyl)-5-oxopyrrolidine-2-carboxamide] cannot be ordered by IC50: less than 50 nM for the first, less than 50 nM for the second.

Compared with `COc1ccc(Oc2ccc(C(F)(F)F)cc2)cc1NC(=O)[C@]1(C)CCC(=O)N1C` [Compound 135, (S)—N-(2-Methoxy-5-(4-(trifluoromethyl)phenoxy)phenyl)-1,2-dimethyl-5-oxo-pyrrolidine-2-carboxamide], `COc1ccc(Oc2ccc(C(F)(F)F)cc2)cc1NC(=O)C1CN(C)C(=O)N1C` (centres unmarked) [Compound 139, N-(2-Methoxy-5-(4-(trifluoromethyl)phenoxy)phenyl)-1,3-dimethyl-2-oxo-imidazolidine-4-carboxamide] is lower in IC50: 50 to 300 nM for the first, less than 50 nM for the second. The second is the more potent here.

First: COc1ccc(Oc2ccc(C(F)(F)F)cc2)cc1NC(=O)C1CCC(=O)N1CC(N)=O (centres unmarked) [Compound 136, 1-(2-Amino-2-oxoethyl)-N-(2-methoxy-5-(4-(trifluoromethyl)phenoxy)phenyl)-5-oxopyrrolidine-2-carboxamide]
Second: COc1ccc(Oc2ccc(C(F)(F)F)cc2)cc1NC(=O)C1CCC(=O)N1C1CCOC1 (centres unmarked) [Compound 138, N-(2-Methoxy-5-(4-(trifluoromethyl)phenoxy)phenyl)-5-oxo-1-(tetrahydrofuran-3-yl)pyrrolidine-2-carboxamide]
The IC50 of the first is lower: less than 50 nM for the first, 50 to 300 nM for the second. The first is the more potent here.

First: COc1ccc(Oc2ccc(C(F)(F)F)cc2)cc1NC(=O)C1CCC(=O)N1c1cnn(C)c1 (centres unmarked) [Compound 137, N-(2-Methoxy-5-(4-(trifluoromethyl)phenoxy)phenyl)-1-(1-methyl-1H-pyrazol-4-yl)-5-oxopyrrolidine-2-carboxamide]
Second: COc1ccc(Oc2ccc(C(F)(F)F)cc2)cc1NC(=O)[C@@H]1CNC(=O)N1C [Compound 141, (S)—N-(2-Methoxy-5-(4-(trifluoromethyl)phenoxy)phenyl)-3-methyl-2-oxoimidazolidine-4-carboxamide]
The IC50 of the first is higher: 301 to 2000 nM for the first, less than 50 nM for the second.

First: COc1ccc(Oc2ccc(C(F)(F)F)cc2)cc1NC(=O)C1CN(C)C(=O)N1C(C)=O (centres unmarked) [Compound 142, 3-Acetyl-N-(2-methoxy-5-(4-(trifluoromethyl)phenoxy)phenyl)-1-methyl-2-oxoimidazolidine-4-carboxamide]
Second: COc1ccc(Oc2ccc(C(F)(F)F)cc2)cc1NC(=O)[C@@H]1CC(OC)C(=O)N1C (stereo partly drawn) [Compound 143, (2S)-4-Methoxy-N-(2-methoxy-5-(4-(trifluoromethyl)phenoxy)phenyl)-1-methyl-5-oxopyrrolidine-2-carboxamide]
The IC50 of the first is higher: 301 to 2000 nM for the first, less than 50 nM for the second.
